{
  "source": "patent US9044389B2",
  "about": "“Isoxazoline derivatives as pesticides” (Novartis AG, priority 2008, dated 2015)",
  "system": "Rhipicephalus sanguineus nymphs",
  "assay": "Activity in vivo against Rhipicephalus sanguineus nymphs on Mongolian gerbils (spray application)",
  "settings": "tick number reduction vs placebo, Abbot's formula",
  "procedure": "On day 0, gerbils are treated with the test compound at a given dose by spray application. On day +1 (+2), the animals are infested with nymphs of R. sanguineus. Ticks are left on the animals until full repletion. Seven days after infestation nymphs dropped off fully engorged are collected and counted. Efficacy in killing is expressed as a tick number reduction in comparison with a placebo treated group, using the Abbot's formula.",
  "data": [
    {"smiles": "Cc1cc(C2=NOC(c3cc(Cl)cc(Cl)c3)(C(F)(F)F)C2)sc1C(=O)NCC(=O)NCC(F)(F)F", "note": "(centres unmarked) [Compound 1.28, 5-[5-(3,5-dichloro-phenyl)-5-trifluoromethyl-4,5-dihydro-isoxazol-3-yl]-3-methyl-thiophene-2-carboxylic acid [(2,2,2-trifluoro-ethylcarbamoyl)-methyl]-amide]", "values": [
      {"measurement": "Efficacy in killing %", "setting": "Dose 10 mg/kg", "value": 96, "unit": "%"}
    ]},
    {"smiles": "Cc1cc(C2=NOC(c3cc(Cl)cc(Cl)c3)(C(F)(F)F)C2)sc1C(=O)NCc1ccncc1", "note": "(centres unmarked) [Compound 1.32]", "values": [
      {"measurement": "Efficacy in killing %", "setting": "Dose 100 mg/kg", "value": 84, "unit": "%"}
    ]},
    {"smiles": "O=C(NCC(F)(F)F)c1sc(C2=NOC(c3cc(Cl)cc(Cl)c3)(C(F)(F)F)C2)cc1-c1ccccc1", "note": "(centres unmarked) [Compound 1.21]", "values": [
      {"measurement": "Efficacy in killing %", "setting": "Dose 32 mg/kg", "value": 98, "unit": "%"}
    ]},
    {"smiles": "Cc1cc(C2=NOC(c3cc(Cl)cc(Cl)c3)(C(F)(F)F)C2)sc1C(=O)NCC(F)(F)F", "note": "(centres unmarked) [Compound 1.8, 5-[5-(3,5-dichloro-phenyl)-5-trifluoromethyl-4,5-dihydro-isoxazol-3-yl]-3-methyl-thiophene-2-carboxylic acid (2,2,2-trifluoro-ethyl)-amide]", "values": [
      {"measurement": "Efficacy in killing %", "setting": "Dose 32 mg/kg", "value": 80, "unit": "%"}
    ]},
    {"smiles": "Cc1cc(C2=NOC(c3cc(Cl)cc(Cl)c3)(C(F)(F)F)C2)sc1C(=O)Nc1nc(C(F)(F)F)cs1", "note": "(centres unmarked) [Compound 1.31]", "values": [
      {"measurement": "Efficacy in killing %", "setting": "Dose 32 mg/kg", "value": 100, "unit": "%"}
    ]},
    {"smiles": "C#CCNC(=O)CNC(=O)c1sc(C2=NOC(c3cc(Cl)cc(Cl)c3)(C(F)(F)F)C2)cc1C", "note": "(centres unmarked) [Compound 1.48]", "values": [
      {"measurement": "Efficacy in killing %", "setting": "Dose 10 mg/kg", "value": 95, "unit": "%"}
    ]},
    {"smiles": "Cc1cc(C2=NOC(c3cc(Cl)cc(Cl)c3)(C(F)(F)F)C2)sc1C(=O)NCC(=O)NCC#N", "note": "(centres unmarked) [Compound 1.49]", "values": [
      {"measurement": "Efficacy in killing %", "setting": "Dose 3.2 mg/kg", "value": 85, "unit": "%"}
    ]},
    {"smiles": "Cc1cc(C2=NOC(c3cc(Cl)c(Cl)c(Cl)c3)(C(F)(F)F)C2)sc1C(=O)NCC(=O)NCC(F)(F)F", "note": "(centres unmarked) [Compound 2.4]", "values": [
      {"measurement": "Efficacy in killing %", "setting": "Dose 10 mg/kg", "value": 90, "unit": "%"}
    ]},
    {"smiles": "Cc1cc(C2=NOC(c3cc(Cl)cc(Cl)c3)(C(F)(F)F)C2)sc1C(=O)Nc1cccnc1", "note": "(centres unmarked) [Compound 1.35]", "values": [
      {"measurement": "Efficacy in killing %", "setting": "Dose 10 mg/kg", "value": 82, "unit": "%"}
    ]},
    {"smiles": "Cc1cc(C2=NOC(c3cc(Cl)c(F)c(Cl)c3)(C(F)(F)F)C2)sc1C(=O)NCC(=O)NCC(F)(F)F", "note": "(centres unmarked) [Compound 2.5]", "values": [
      {"measurement": "Efficacy in killing %", "setting": "Dose 10 mg/kg", "value": 90, "unit": "%"}
    ]},
    {"smiles": "Cc1cc(C2=NOC(c3cc(Cl)cc(Cl)c3)(C(F)(F)F)C2)sc1C(=O)NCC1CCCO1", "note": "(centres unmarked) [Compound 1.29]", "values": [
      {"measurement": "Efficacy in killing %", "setting": "Dose 100 mg/kg", "value": 92, "unit": "%"}
    ]}
  ]
}
